Measured values taken from patent US20240264169A1, “METHOD FOR THE QUANTIFICATION OF THE ACTIVATION STATE OF G-PROTEIN-COUPLED RECEPTORS IN A HUMAN BIOLOGICAL SAMPLE” (ALDA S.R.L., priority 2021, published 2024).
Where “and” joins values, the source holds several entries; their conditions need not be identical. Equal entries are not always repeated.

Experiments:
Assay type in all cases: cell-based
[1] = system: human neutrophils; assay: Cell count after treatment of blood sample
Excerpt: Another aspect that strongly distinguishes the sample activated with IL8 alone and the IL8_+_navarixin sample is the cell count after treatment.

[2] = molecular target: T1, CXCR1//ArrB interaction (Homo sapiens, UniProt P25024); assay: FRET assay (intensity-based acceptor photobleaching) of CXCR1//β-Arrestin interaction on neutrophils
T1 construct: expression and localization of endogenous CXCR1 protein; endogenous in cells; host or cells: human neutrophils in venous blood aliquots
T1 sequence (P25024 1-350): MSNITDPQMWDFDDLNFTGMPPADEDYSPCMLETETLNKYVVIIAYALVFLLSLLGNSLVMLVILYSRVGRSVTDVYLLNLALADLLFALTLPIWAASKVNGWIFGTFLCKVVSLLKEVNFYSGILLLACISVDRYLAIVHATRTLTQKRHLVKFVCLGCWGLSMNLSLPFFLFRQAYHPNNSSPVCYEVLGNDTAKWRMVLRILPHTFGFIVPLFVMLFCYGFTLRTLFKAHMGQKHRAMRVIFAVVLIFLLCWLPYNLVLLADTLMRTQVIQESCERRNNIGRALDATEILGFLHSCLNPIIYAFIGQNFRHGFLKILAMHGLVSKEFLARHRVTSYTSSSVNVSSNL
Excerpt: Next, the measured FRET efficiency is related to the abundance of the interaction between the donor and acceptor probe within each pixel of the image. Detection of the FRET signal consists of a precise estimate of the fluorescent emission (FD) intensity or emission decay rate (<τ>) of the donor probe. The quantization of FD in a biological sample appears to be inexpensive in terms of complexity and cost of the instrumentation required for analysis. […] Below is the formula used to calculate the FRET (pixel by pixel) efficiency shown in the images reported in this study:
(§1) Precisely this last aspect, however, offers added value in monitoring the interaction of the receptor with β-Arrestin. Indeed, in this scenario, the maximum interaction value between these two proteins is recorded 8 to 12 minutes after the interleukin stimulus. The measurement of the activation state occurs within a defined time window, the beginning of which coincides with the time of sampling (FIG. 1a). By subjecting the blood aliquots to a stasis under controlled conditions, it is possible to obtain a homogeneous activation state among the neutrophils in the control sample, estimated by quantifying the amount of receptor that is bound to β-Arrestin at the time of fixation. […] The amount of activation is obtained by difference with the basal state, which corresponds to the amount of desensitized receptor found after the same time interval in each experiment. The correlation between FRET signal intensity and morphology (FIG. 4c) allows us to assess the effectiveness of the inhibitor: the change in morphology from spherical to polarized in the presence of high FRET, indicates the persistence of a G-protein pathway-mediated signal.
Next, the FRET assay for measuring the CXCR1//ArrB interaction on neutrophils was repeated, operating in triplicate (FIG. 4). A first control sample, CTRL-DMSO, corresponds to the sample set at 30 minutes; this time is required for neutrophils to return to a resting state after mechanical activation due to handling. […] Values reported refer to the measurements on 15 neutrophil cells of donor fluorophore de-quenching following acceptor photo-bleaching, obtained by the INTENSITY-BASED ACCEPTOR PHOTOBLEACHING approach (FIG. 7 and Table 1).
The CTRL of each triplicate consists of a sister sample subjected to the same treatment conditions unless drug addition. Exclusively for the time zero sample, fixation was carried out at about one minute after sampling, and the analysis reported high FRET probably due to heterologous desensitization. For all remaining samples, fixation was performed at 30 minutes after sampling, an interval of time during which the drug was allowed to act, directly added to the tube of each treated sample.

[3] = molecular target: T2, CXCR1-GaI interaction (Homo sapiens, UniProt P25024); assay: FRET-FLIM analysis of the CXCR1-GaI interaction pair; settings: in the presence of IL-8 (10 nM)
T2 construct: expression and localization of endogenous CXCR1 protein; endogenous in cells; host or cells: human neutrophils
T2 sequence (P25024 1-350): T1 sequence (P25024 1-350)
Description: The receptor activation status was measured through the quantification of CXCR1-GaI and CXCR1-Arrestin interactions. […] In this circumstance, the minimum value of FRET is assumed, which serves as an internal control.

[4] = system: human neutrophils; assay: Neutrophil morphology upon fixation (spherical vs polarized)
Description: as §1, with “signal. In contrast, the presence of high FRET in perfectly spherical cells (indistinguishable from those observed in the control aliquot), is an indication of high desensitization of the receptor by β-Arrestins, and thus the inhibitor is able to promote deactivation of the receptor, with the effect of a drastic reduction in G-protein-mediated signaling.” for “signal.”
Thus, the treatment with allosteric inhibitors generates high receptor desensitization. However, if IL-8 treatment is conducted in the presence of allosteric inhibitor, neutrophil morphology is maintained spherical even under stimulated conditions. […] In the quiescent or competitive inhibition condition, the neutrophil consistently retains a spherical morphology.
The most striking difference between the condition in which the sample is treated with IL-8 and the condition in which the sample is pretreated with inhibitor and then subjected to the IL-8 stimulus concerns morphology. […]

[5] = molecular target: T3, CXCR1-βArrestin2 interaction (Homo sapiens, UniProt P25024); assay: FRET-FLIM donor probe lifetime measurement, anti-CXCR1 donor / anti-βArrestin2 acceptor, neutrophils; settings: Reparixin 100 μg/ml; one value per cell (3 cells); Levenberg-Marquardt fitting; Control 2.57-2.63, Donor only 2.64-2.67
T3 construct: expression and localization of endogenous CXCR1 protein; endogenous in cells; host or cells: human neutrophils in venous blood aliquots
T3 sequence (P25024 1-350): T1 sequence (P25024 1-350)
Description: The fitting model used is bi-exponential and the measurement is repeated for each individual neutrophil: a global decay curve consisting of the summation of the curves recorded in all the pixels that make up the analyzed cell is generated for each of them. The rate of decay of the fluorescence intensity of the total donor population (bound and unbound receptor) is of the exponential type and follows the trend described by the formula:
The decay acquired in each region of interest (ROI) corresponds to the lifetime obtained from the cumulative histogram consisting of the summation of all pixels contained in the ROL The histogram is interpolated by bi-exponential fitting, and the lifetime calculated on the two components (A1 and A2) with the following equation:
The expression used to calculate the FRET efficiency by using the FLIM technique is as follows:
where tD is the absolute donor lifetime, measured in a sample containing only the donor probe, and tD-A is the donor lifetime in a sample subjected to the same condition, in which both donor and acceptor probes are present.
To correctly interpret the following graph (FIG. 8b), remember that the presence of interaction induces a lowering of the donor probe lifetime; this lowering is quantified by the slope of the decay curve, which corresponds to the donor probe lifetime (τ). The value of τ can be derived numerically from the nonlinear fitting of the decay curve.
The Levenberg-Marquardt algorithm, which is based on the method of least squares, was used for nonlinear fitting of the recorded decay curves.
The values of r extrapolated from the nonlinear fitting by using the Levenberg-Marquardt algorithm were further verified using the maximum likelihood estimation (MLE) method, which allows for greater accuracy in evaluating the parameters obtained from the statistical distribution of photonic phenomena (such as the decay of a fluorophore's emission), as these phenomena are generally governed by a Poissonian distribution. The values shown in the table are those calculated exclusively by the Levenberg-Marquardt algorithm.

[6] = REPARIXIN 100 ugmL-1, 30 min, 15 neutrophil cells, each column one of triplicate samples
[7] = IL-8 treatment in the presence of allosteric inhibitor

time of maximum receptor-β-Arrestin interaction after stimulus ([2]; after the interleukin stimulus) | signal lifetime versus non-activated control [3] | τ (donor probe lifetime) [5] | FRET (donor de-quenching after acceptor photobleaching), Mean [2, 6] | FRET (donor de-quenching after acceptor photobleaching), Median [2, 6] | FRET versus control (interaction with β-Arrestins) ([2]; combined treatment IL-8 + allosteric inhibitor) | FRET in analyzed cells ([2]; highest concentration of Reparixin (100 μg/mL), 30 min) | Molecule | cells found at the time of fixation relative to control ([1]; sample stimulated with IL-8 alone) | amount of receptor in the desensitized state (in complex with b-Arrestin2) ([2]; IL-8 stimulation, in presence and absence of allosteric modulator) | neutrophil morphology ([4]; IL-8 treatment, inhibitor absent) | FRET in analyzed cells ([2]; Reparixin 40 ug/ml, two of the three samples) | neutrophil morphology [4, 7] | number of cells compared to control ([1]; sample pretreated with inhibitor, then stimulated with IL-8)
8 to 12 min | decrease in signal lifetime |  |  |  |  |  | interleukin-8 [IL-8] | about 20% | significant increase | polarized |  |  | 
 |  | 2.05 and 2.12 and 2.1 | 32.35 and 27.67 and 32.60 | 38.96 and 21.92 and 35.03 | higher than control | high in many cells | CC(C)Cc1ccc([C@@H](C)C(=O)NS(C)(=O)=O)cc1 [Reparixin] |  |  |  | many cells with FRET values equal to the control | spherical | 
 |  |  |  |  |  |  | CC[C@@H](Nc1c(Nc2cccc(C(=O)N(C)C)c2O)c(=O)c1=O)c1ccc(C)o1 [Navarixin] |  |  |  |  | spherical | same number of cells
